Test results as given in BindingDB's records for doi:10.1016/j.bmcl.2015.05.100 (Eli Lilly, 2015).

Assays:
[1] = molecular target: Cyclin-dependent kinase 2 (Homo sapiens, UniProt P24941); assay: Inhibition of CDK2 (unknown origin) using GST-fused pRb (792 to 928) as substrate preincubated for 2 mins followed by [gamma-32P]-ATP addition measured after 15 mins by beta plate counting analysis
[2] = molecular target: Cyclin-dependent kinase 4 (Homo sapiens, UniProt P11802); assay: Inhibition of CDK4 (unknown origin) using GST-fused pRb (792 to 928) as substrate preincubated for 2 mins followed by [gamma-32P]-ATP addition measured after 15 mins by beta plate counting analysis
Chain of Cyclin-dependent kinase 4 (P11802 whole entry, the tested form may be a part): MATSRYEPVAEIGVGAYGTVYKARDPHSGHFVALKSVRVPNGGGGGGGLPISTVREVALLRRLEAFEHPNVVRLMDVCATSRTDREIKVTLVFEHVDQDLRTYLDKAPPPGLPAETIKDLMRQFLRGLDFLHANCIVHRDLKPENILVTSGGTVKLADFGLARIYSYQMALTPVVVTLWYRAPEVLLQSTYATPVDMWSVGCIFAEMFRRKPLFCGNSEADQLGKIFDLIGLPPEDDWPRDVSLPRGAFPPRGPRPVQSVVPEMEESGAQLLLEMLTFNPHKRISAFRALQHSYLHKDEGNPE

IC50 [1] [nM]	IC50 [2] [nM]	Structure (SMILES)
439		Cc1c(Br)c(=O)n(C2CCCC2)c2nc(Nc3ccc(N4CCNCC4)cc3)ncc12 [6-bromo-8-cyclopentyl-5-methyl-2-{[4-(piperazin-1-yl)phenyl]amino}-7H,8H-pyrido[2,3-d]pyrimidin-7-one]
43	2	O=c1c(Br)cc2cnc(Nc3ccc(N4CCNCC4)cc3)nc2n1C1CCCC1
	2	CC(=O)c1c(C)c2cnc(Nc3ccc(N4CCNCC4)cc3)nc2n(C2CCCC2)c1=O [8-cyclopentyl-6-acetyl-5-methyl-2-{[4-(piperazin-1-yl)phenyl]amino}-7H,8H-pyrido[2,3-d]pyrimidin-7-one]
